Legend:
FLT3 (D835H) = FLT3 (D835H) (Homo sapiens, UniProt P36888, D835H); experiment: KINOMEscan Kd, specific screen against FLT3 mutants; type: binding
Protocol: (§1) Dissociation constants (Kd) and inhibition levels of FLT3 mutants were measured at DiscoverX using the KINOMEscan^TM Profiling Service (KdELECT).

FLT3 (D835V) = FLT3 (D835V) (Homo sapiens, UniProt P36888, D835V); experiment: as above; type: binding
Protocol: as §1

FLT3 (D835Y) = FLT3 (D835Y) (Homo sapiens, UniProt P36888, D835Y); experiment: as above; type: binding
Protocol: as §1

FLT3 (ITD) = FLT3 (ITD) (Homo sapiens, UniProt P36888, ITD); experiment: as above; type: binding
Protocol: as §1

FLT3 (ITD, D835V) = FLT3 (ITD, D835V) (Homo sapiens, UniProt P36888, D835V/ITD); experiment: as above; type: binding
Protocol: as §1

FLT3 (ITD, F691L) = FLT3 (ITD, F691L) (Homo sapiens, UniProt P36888, F691L/ITD); experiment: as above; type: binding
Protocol: as §1

FLT3 (K663Q) = FLT3 (K663Q) (Homo sapiens, UniProt P36888, K663Q); experiment: as above; type: binding
Protocol: as §1

FLT3 (N841I) = FLT3 (N841I) (Homo sapiens, UniProt P36888, N841I); experiment: as above; type: binding
Protocol: as §1

FLT3 (R834Q) = FLT3 (R834Q) (Homo sapiens, UniProt P36888, R834Q); experiment: as above; type: binding
Protocol: as §1

[1] = Metabolic stability, liver S9 fraction; type: in vitro ADME; details: Mouse, 37 °C, read-out: Liver S9 fraction t1/2 (converted)
[2] = tested on: MV-4-11 tumors (FLT3-ITD+); experiment: MV-4-11 subcutaneous xenograft, single agent; type: in vivo, SCID/beige mice; details: PO
Excerpt: All animals were handled in strict accordance with good animal practice as defined by the relevant national and local animal welfare bodies. SCID and SCID/beige C.B-17 mice were provided by Harlan Laboratories or Charles River Laboratories, and were maintained in pathogen free conditions. For the xenograft experiments, age-matched (9-11 weeks old) females were used. 5×10^6 of MV-4-11 or MOLM-16 cells were suspended in a mixture (1:1, v:v) of PBS with Matrigel (BD Biosciences,) and injected subcutaneously (sc), in a total volume of 100 μL, above the groin on the right hind limb. For MOLM-13 and KG-1 cells, a mixture (3:1, v:v) of PBS and Matrigel HC (BD Bioscience,) was used to inject 5 × 10^6 of cell per mouse subcutaneously (sc), in a total volume of 100 μL. When tumors reached 100-130 mm^3, mice were randomized into uniform groups (6-9 mice per group) and subsequently administered the compound. […] At the end of the experiment, mice were anesthetized with isofluran and blood samples for total cell counts and biochemistry were obtained by retro-orbital bleeding. […] 5×10^6 cells suspended in a mixture (3:1, v:v) of PBS and Matrigel were injected as described above. When the tumor volume reached ~120 mm^3, mice were randomized into uniform groups (5 mice per group) and the compound then administered. […] Tumor volume was monitored every second day and calculated using the formula: TV = (a^2×b)/2, where “a” is the short axis in millimeters, and “b” is the long axis in millimeters. Body weight was assessed every day.

[3] = Total blood cell counts in mice with MV-4-11 tumors; details: treatment day 15
Excerpt: All animals were handled in strict accordance with good animal practice as defined by the relevant national and local animal welfare bodies. SCID and SCID/beige C.B-17 mice were provided by Harlan Laboratories or Charles River Laboratories, and were maintained in pathogen free conditions. For the xenograft experiments, age-matched (9-11 weeks old) females were used. 5×10^6 of MV-4-11 or MOLM-16 cells were suspended in a mixture (1:1, v:v) of PBS with Matrigel (BD Biosciences,) and injected subcutaneously (sc), in a total volume of 100 μL, above the groin on the right hind limb. For MOLM-13 and KG-1 cells, a mixture (3:1, v:v) of PBS and Matrigel HC (BD Bioscience,) was used to inject 5 × 10^6 of cell per mouse subcutaneously (sc), in a total volume of 100 μL. When tumors reached 100-130 mm^3, mice were randomized into uniform groups (6-9 mice per group) and subsequently administered the compound. […] At the end of the experiment, mice were anesthetized with isofluran and blood samples for total cell counts and biochemistry were obtained by retro-orbital bleeding. […] 5×10^6 cells suspended in a mixture (3:1, v:v) of PBS and Matrigel were injected as described above. When the tumor volume reached ~120 mm^3, mice were randomized into uniform groups (5 mice per group) and the compound then administered. […] Tumor volume was monitored every second day and calculated using the formula: TV = (a^2×b)/2, where “a” is the short axis in millimeters, and “b” is the long axis in millimeters. Body weight was assessed every day. […]
Supplementary Table 10: Related to Figure 5C. […] The assessment total
performed on treatment day 15.
RBC – red blood cells, HGB – hemoglobin, HCT – hematocrit, WBC – white blood cells, LYMPH – lymphocytes, MONO
– monocytes, GRA – granulocytes, PLT – platelet, MPV – mean platelet volume.

MV-4-11 = experiment: MTS viability assay, 72 h; details: Homo sapiens, MV4-11, 72 h
Protocol: (§2) On the same day, 50 μL of medium containing tested inhibitor was added to the wells. Each compound was tested at 8 concentrations, in triplicates. As a negative control, the medium containing 0.1% DMSO was used. […] Staurosporine was used at 10 μM as a positive control. One the day of drug addition, basal signal from untreated cells was measured from in triplicate to determine time zero (T0). […] GI50 and LC50 values were extrapolated from a variable (four-parameter) dose-response curve fitted in GraphPad Prism.

MOLM-14 = experiment: MTS viability assay, 72 h; details: Homo sapiens, MOLM-14, 72 h
Protocol: (§3) 15-25 ×10^3 of MV-4-11, MOLM-13, MOLM-14, MOLM-16, KG-1, Eol-1, SKM-1, PL-21, GDM-1, SKNO-1, RS4;11, Kasumi-3 and Kasumi-6 cells were seeded in 150 μL of culture medium onto individual wells in a 96 well plates, in triplicates. On the same day, 50 μL of medium containing tested inhibitor was added to the wells. Each compound was tested at 8 concentrations, in triplicates. As a negative control, the medium containing 0.1% DMSO was used. […] Staurosporine was used at 10 μM as a positive control. One the day of drug addition, basal signal from untreated cells was measured from in triplicate to determine time zero (T0). […] GI50 and LC50 values were extrapolated from a variable (four-parameter) dose-response curve fitted in GraphPad Prism.

OCI-AML-2 = experiment: MTS viability assay, 72 h; details: Homo sapiens, OCI-AML2, 72 h
Protocol: as §2

RS4;11 = experiment: MTS viability assay, 72 h; details: Homo sapiens, RS4-11, 72 h
Protocol: as §3

For `CC(C)n1c(C2CCNCC2)nc2c([N+](=O)[O-])c(Br)c(Br)cc21` [SEL24-B489, 5,6-dibromo-4-nitro-2-(piperidin-4-yl)-1-(propan-2-yl)-1H-1,3-benzodiazole], the Kd (FLT3 (D835H)) was 37 nM, the Kd (FLT3 (D835V)) was 11 nM and the Kd (FLT3 (D835Y)) was 16 nM. It also gave a Kd (FLT3 (ITD)) of 12 nM, a Kd (FLT3 (ITD, D835V)) of 2.8 nM and a Kd (FLT3 (ITD, F691L)) of 10 nM. The Kd (FLT3 (K663Q)) was 530 nM, the Kd (FLT3 (N841I)) was 150 nM and the Kd (FLT3 (R834Q)) was 3200 nM. For the same compound, the half-life at 1 µM [1] was 2.6 h, the “tumor growth inhibition (TGI)” value ([2]; MV-4-11, 50 mg/kg daily) was 67% and the “tumor growth inhibition (TGI)” value ([2]; MV-4-11, 75 mg/kg daily) was 74%. For the same compound, the “tumor growth inhibition (TGI)” value ([2]; MV-4-11, 100 mg/kg daily) was 82%, the GRA ([3]; SEL24-B489 25 mg/kg) was 42.2% and the HCT ([3]; SEL24-B489 25 mg/kg) was 48.8%. The HGB ([3]; SEL24-B489 25 mg/kg) was 14.6 g/dL, the LYMPH ([3]; SEL24-B489 25 mg/kg) was 47.2% and the MONO ([3]; SEL24-B489 25 mg/kg) was 10.6%. For the same compound, the MPV ([3]; SEL24-B489 25 mg/kg) was 6.1 μm3, the PLT ([3]; SEL24-B489 25 mg/kg) was 1016 103/mm3 and the RBC ([3]; SEL24-B489 25 mg/kg) was 9.8 106/mm3. For the same compound, the WBC ([3]; SEL24-B489 25 mg/kg) was 3.1 103/mm3, the GRA ([3]; SEL24-B489 50 mg/kg) was 49.1% and the HCT ([3]; SEL24-B489 50 mg/kg) was 47.4%. The HGB ([3]; SEL24-B489 50 mg/kg) was 14.4 g/dL, the LYMPH ([3]; SEL24-B489 50 mg/kg) was 40.3% and the MONO ([3]; SEL24-B489 50 mg/kg) was 10.5%. For the same compound, the MPV ([3]; SEL24-B489 50 mg/kg) was 5.7 μm3, the PLT ([3]; SEL24-B489 50 mg/kg) was 1286 103/mm3 and the RBC ([3]; SEL24-B489 50 mg/kg) was 9.6 106/mm3. For the same compound, the WBC ([3]; SEL24-B489 50 mg/kg) was 4.9 103/mm3, the GI50 (MV-4-11) was 20 nM and the CC50 (MV-4-11; read-out: LC50) was greater than 10000 nM. It also gave a GI50 (MOLM-14) of 97 nM, a CC50 (MOLM-14; read-out: LC50) greater than 10000 nM and a GI50 (OCI-AML-2) of 960 nM. It also gave a CC50 (OCI-AML-2; read-out: LC50) of 2320 nM, a GI50 (RS4;11) of 190 nM and a CC50 (RS4;11; read-out: LC50) of 2160 nM.
